Reference: patent US4259235A, “Tricyclic nitrogenous compounds having string plant growth regulating properties” (BASF Aktiengesellschaft, priority 1977, dated 1981)
Where two headings read alike, the source gives them in different places.

How the values were obtained:
[1] = system: Cynodon dactyl.; assay: Shoot inhibition, pre- and postemergence treatment (table 28); format: in vivo, Cynodon dactylon; details: post-emergence, from seed, read-out: % shoot inhibition
Protocol: (§1) Plastic flowerpots having a volume of 300 cm^3 were filled with a sandy loam and the test plants placed therein (either as seed, as vegetatively reproduced species, or as potted plants, e.g., vines). For preemergence treatment, the active ingredients were suspended or emulsified in water as vehicle and sprayed onto the surface of the soil immediately after sowing by means of finely distributing nozzles. The potted vines were treated by spraying them with the correspondingly diluted liquor. For postemergence treatment, the agents were, as stated above, sprayed in water onto the leaves of the test plants, some liquor also falling onto the soil. In some special cases, solid active ingredients were first dissolved in dimethylformamide and then applied in a total liquor amount of 400 liters of water per hectare. For the postemergence treatment, the plants were first grown to a height of from 3 to 10 cm before being treated. With grasses, the first growth was cut, and the new growth treated 2 to 3 days after cutting. The temperature requirements of the plants were taken into account by placing them in cooler or warmer sections of the greenhouse. The experiments were run for from 4 to 6 weeks, during which time the plants were tended and their reaction to the various treatments was assessed.
(§2) The application rates are given in kg/ha of active ingredient, regardless of the method of application and the amount of water used.
(§3) A 0 to 100 scale was used for the evaluation, 0 denoting normal emergence or no damage (or no inhibition), and 100 denoting non-emergence or complete destruction of the plants. A distinction should be made in the influence on growth between desired changes without any appreciable disadvantageous phytotoxic effects (e.g., purely growth-regulating effects) and those of a phytotoxic herbicical character.

[2] = system: Euphorbia genic.; assay: as above; format: in vivo, Euphorbia geniculata; details: post-emergence, read-out: % shoot inhibition
Protocol: as §1, §2, §3

[3] = system: Hordeum vulg.; assay: as above; format: in vivo, Hordeum vulgare; details: post-emergence, read-out: % shoot inhibition
Protocol: as §1, §2, §3

[4] = system: Tritic. aestiv.; assay: as above; format: in vivo; details: post-emergence, read-out: % shoot inhibition
Protocol: as §1, §2, §3

[5] = system: Glycine max; assay: as above; format: in vivo; details: post-emergence, read-out: % shoot inhibition
Protocol: as §1, §2, §3

[6] = system: Poa prat.; assay: as above; format: in vivo; details: Poa pratensis, post-emergence, read-out: % shoot inhibition
Protocol: as §1, §2, §3

[7] = system: Arachys hypog.; assay: as above; format: in vivo, Arachys hypogaea; details: post-emergence, read-out: % shoot inhibition
Protocol: as §1, §2, §3

[8] = system: Ipom. spp.; assay: Herbicidal action, pre- and postemergence application in the greenhouse; format: in vivo, Ipomoea spp.; details: Ipomoea, post-emergence; 3.0 kg/ha POST; read-out: % damage
Protocol: as §1, §2, §3

[9] = system: Galium apar.; assay: as above; format: in vivo, Galium aparine; details: post-emergence, 3.0 kg/ha POST, read-out: % damage
Protocol: as §1, §2, §3

[10] = system: Lolium mult.; assay: as above; format: in vivo; details: Lolium, post-emergence, read-out: % damage
Protocol: as §1, §2, §3

[11] = system: Sinapis alba; assay: as above; format: in vivo; details: post-emergence, 3.0 kg/ha PRE, read-out: % damage
Protocol: as §1, §2, §3

[12] = system: Mentha piper.; assay: as above; format: in vivo; details: post-emergence; 3.0 kg/ha POST; read-out: % damage
Protocol: as §1, §2, §3

[13] = system: Euphorbia geniculata; assay: Shoot growth, postemergence treatment in the greenhouse (table 26); format: in vivo
Protocol: as §1, §2, §3

[14] = system: Cynodon dactylon; assay: as above; format: in vivo; details: from seed
Protocol: as §1, §2, §3

[15] = system: Hordeum vulgare; assay: as above; format: in vivo
Protocol: as §1, §2, §3

[16] = system: Poa pratensis; assay: as above; format: in vivo
Protocol: as §1, §2, §3

[17] = system: Cynodon dact. (seed); assay: Herbicidal action, pre- and postemergence application in the greenhouse; format: in vivo, Cynodon dactylon; details: appln. rate 2 kg/ha, POST line
Protocol: as §1, §2, §3

Q: For c1ccc(C2=NNC3C4CC(C5N=NC45)C23)cc1 (stereo not shown) [drawing 438], which inhibition at 1000 g/ha ([1]; 1.0 kg/ha POST) is on record?
A: Its inhibition at 1000 g/ha is 13%.

Q: And the inhibition at 1000 g/ha ([1]; 1.0 kg/ha PRE)?
A: Its inhibition at 1000 g/ha is 10%.

Q: And the inhibition at 2000 g/ha ([1]; 2.0 kg/ha POST)?
A: Its inhibition at 2000 g/ha is 25%.

Q: What about the inhibition at 2000 g/ha ([1]; 2.0 kg/ha PRE) of the same molecule?
A: The inhibition at 2000 g/ha was 10%.

Q: What about the inhibition at 1000 g/ha ([2]; 1.0 kg/ha PRE) of the same molecule?
A: Its inhibition at 1000 g/ha is 10%.

Q: What about the inhibition at 2000 g/ha ([2]; 2.0 kg/ha PRE) of the same molecule?
A: The inhibition at 2000 g/ha was 30%.

Q: And the inhibition at 1000 g/ha ([3]; 1.0 kg/ha POST)?
A: The inhibition at 1000 g/ha was 30%.

Q: And the inhibition at 1000 g/ha ([3]; 1.0 kg/ha PRE)?
A: The inhibition at 1000 g/ha was 25%.

Q: What about the inhibition at 2000 g/ha ([3]; 2.0 kg/ha POST) of the same molecule?
A: The inhibition at 2000 g/ha was 30%.

Q: What about the inhibition at 2000 g/ha ([3]; 2.0 kg/ha PRE) of the same molecule?
A: Its inhibition at 2000 g/ha is 25%.

Q: And the inhibition at 1000 g/ha ([4]; 1.0 kg/ha POST)?
A: Its inhibition at 1000 g/ha is 10%.

Q: What about the inhibition at 1000 g/ha ([4]; 1.0 kg/ha PRE) of the same molecule?
A: The inhibition at 1000 g/ha was 30%.

Q: And the inhibition at 2000 g/ha ([4]; 2.0 kg/ha POST)?
A: The inhibition at 2000 g/ha was 20%.

Q: And the inhibition at 2000 g/ha ([4]; 2.0 kg/ha PRE)?
A: The inhibition at 2000 g/ha was 30%.

Q: And the inhibition at 1000 g/ha ([5]; 1.0 kg/ha PRE)?
A: The inhibition at 1000 g/ha was 10%.

Q: And the inhibition at 2000 g/ha ([5]; 2.0 kg/ha PRE)?
A: The inhibition at 2000 g/ha was 25%.

Q: What about the inhibition at 1000 g/ha ([6]; 1.0 kg/ha PRE) of the same molecule?
A: Its inhibition at 1000 g/ha is 60%.

Q: What about the inhibition at 2000 g/ha ([6]; 2.0 kg/ha PRE) of the same molecule?
A: Its inhibition at 2000 g/ha is 60%.

Q: What about the inhibition at 1000 g/ha ([7]; 1.0 kg/ha POST) of the same molecule?
A: Its inhibition at 1000 g/ha is 20%.

Q: And the inhibition at 1000 g/ha ([7]; 1.0 kg/ha PRE)?
A: The inhibition at 1000 g/ha was 10%.

Q: And the inhibition at 2000 g/ha ([7]; 2.0 kg/ha POST)?
A: The inhibition at 2000 g/ha was 30%.

Q: And the inhibition at 2000 g/ha ([7]; 2.0 kg/ha PRE)?
A: Its inhibition at 2000 g/ha is 10%.

Q: How did the pest or weed control at 3000 g/ha [8] turn out when C1C2C3N=NC3C1C1OC21 (stereo not shown) [drawing 445] was run?
A: The pest or weed control at 3000 g/ha was 100%.

Q: What about the pest or weed control at 3000 g/ha [9] of the same molecule?
A: The pest or weed control at 3000 g/ha was 60%.

Q: What about the pest or weed control at 3000 g/ha ([10]; 3.0 kg/ha POST) of the same molecule?
A: The pest or weed control at 3000 g/ha was 100%.

Q: And the pest or weed control at 3000 g/ha ([10]; 3.0 kg/ha PRE)?
A: The pest or weed control at 3000 g/ha was 95%.

Q: And the pest or weed control at 3000 g/ha [11]?
A: Its pest or weed control at 3000 g/ha is 90%.

Q: What about the pest or weed control at 3000 g/ha [12] of the same molecule?
A: The pest or weed control at 3000 g/ha was 100%.

Q: Which results are given for ClC1C2CC(C3N=NC23)C1Nc1nccs1 (stereo not shown)?
A: pest or weed control at 3000 g/ha [8]: 80%; pest or weed control at 3000 g/ha [9]: 80%; pest or weed control at 3000 g/ha ([10]; 3.0 kg/ha POST): 100%; pest or weed control at 3000 g/ha [12]: 100%

Q: Clc1ccc(NC2C(Cl)C3CC2C2N=NC32)cc1 (stereo not shown) [drawing 435] was tested. Which Shoot length ([13]; 0.5 kg/ha) did it give?
A: Its Shoot length is 9 cm.

Q: And the Shoot length ([13]; 1.0 kg/ha)?
A: Its Shoot length is 9 cm.

Q: What about the Shoot length ([13]; 2.0 kg/ha) of the same molecule?
A: The Shoot length was 9 cm.

Q: And the Shoot length ([14]; 1.0 kg/ha)?
A: The Shoot length was 5 cm.

Q: And the Shoot length ([14]; 2.0 kg/ha)?
A: Its Shoot length is 5 cm.

Q: What about the Shoot length ([15]; 0.5 kg/ha) of the same molecule?
A: Its Shoot length is 12.5 cm.

Q: What about the Shoot length ([15]; 1.0 kg/ha) of the same molecule?
A: The Shoot length was 12 cm.

Q: What about the Shoot length ([15]; 2.0 kg/ha) of the same molecule?
A: Its Shoot length is 12 cm.

Q: For O=C1NC2C3CC(C(Br)C3Br)C12 (stereo not shown), which pest or weed control at 3000 g/ha [8] is on record?
A: The pest or weed control at 3000 g/ha was 95%.

Q: What about the pest or weed control at 3000 g/ha [9] of the same molecule?
A: Its pest or weed control at 3000 g/ha is 70%.

Q: And the pest or weed control at 3000 g/ha ([10]; 3.0 kg/ha POST)?
A: The pest or weed control at 3000 g/ha was 95%.

Q: What about the pest or weed control at 3000 g/ha [12] of the same molecule?
A: Its pest or weed control at 3000 g/ha is 40%.

Q: For OC1C2CC(C3N=NC23)C1Nc1ccc(Cl)cc1 (stereo not shown), which Shoot length ([14]; 1.0 kg/ha) is on record?
A: The Shoot length was 6 cm.

Q: What about the Shoot length ([14]; 2.0 kg/ha) of the same molecule?
A: The Shoot length was 6 cm.

Q: And the Shoot length ([15]; 0.5 kg/ha)?
A: The Shoot length was 16 cm.

Q: What about the Shoot length ([15]; 1.0 kg/ha) of the same molecule?
A: Its Shoot length is 15 cm.

Q: And the Shoot length ([15]; 2.0 kg/ha)?
A: The Shoot length was 14 cm.

Q: And the Shoot length ([16]; 1.0 kg/ha)?
A: Its Shoot length is 13 cm.

Q: What about the Shoot length ([16]; 2.0 kg/ha) of the same molecule?
A: Its Shoot length is 13 cm.

Q: What does the source list for Cc1ccc(NC2C(Cl)C3CC2C2N=NC32)cc1 (stereo not shown)?
A: pest or weed control at 3000 g/ha [8]: 100%; pest or weed control at 3000 g/ha [9]: 75%; pest or weed control at 3000 g/ha ([10]; 3.0 kg/ha POST): 100%; pest or weed control at 3000 g/ha ([10]; 3.0 kg/ha PRE): 80%; pest or weed control at 3000 g/ha [11]: 100%; pest or weed control at 3000 g/ha [12]: 100%

Q: Which “% damage” value [17] does the source give for c1ccc(C2=NOC3C4CC(C5N=NC45)C23)cc1 (stereo not shown) [drawing 453] here?
A: Its value is 100%.

Q: What about the pest or weed control at 3000 g/ha [8] of the same molecule?
A: Its pest or weed control at 3000 g/ha is 100%.

Q: And the pest or weed control at 3000 g/ha [9]?
A: The pest or weed control at 3000 g/ha was 95%.

Q: And the pest or weed control at 3000 g/ha ([10]; 3.0 kg/ha POST)?
A: Its pest or weed control at 3000 g/ha is 100%.

Q: And the pest or weed control at 3000 g/ha ([10]; 3.0 kg/ha PRE)?
A: Its pest or weed control at 3000 g/ha is 100%.

Q: And the pest or weed control at 3000 g/ha [11]?
A: Its pest or weed control at 3000 g/ha is 90%.

Q: What about the pest or weed control at 3000 g/ha [12] of the same molecule?
A: The pest or weed control at 3000 g/ha was 75%.
